From patent publication US6337192B1, “MMSC1-an MMAC1 interacting protein” (Myraid Genetics, Inc., priority 1998, dated 2002) come the findings set out here.

In one assay the target is T1, MMSc1 PDZ 3 (Homo sapiens, UniProt Q8NI35).
T1 construct: made in house; host or cells: E. coli
T1 sequence (Q8NI35 365-453 limits assumed): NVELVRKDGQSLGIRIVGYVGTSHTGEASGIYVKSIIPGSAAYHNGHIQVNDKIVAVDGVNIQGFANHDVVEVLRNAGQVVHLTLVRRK
In words: Peptide binding ELISA assay (PDZ Binding Assay), MMSC1 PDZ domain 3. The conditions noted are these: immobilized GST fusion of MMSc1 PDZ 3; biotinylated peptide pre-bound to streptavidin-alkaline phosphatase; colorimetric phosphatase assay. From the text:
(§1) cDNAs encoding each of the MMSC1 PDZ domains (amino acid residues identified in Table 1), and any desired control proteins, were generated by PCR and subcloned as glutathione S-transferase (GST) fusions in pGEX vectors (Pharmacia). After sequencing to confirm expression construct integrity, the resulting clones were expressed in E. coli and the desired fusion proteins isolated with glutathione-agarose and recovered with glutathione elution. These fusion proteins or control proteins were then adsorbed to different wells of a 96-well ELISA plate and remaining sites blocked with BSA. Synthetic commercially synthesized peptides encoding the desired PDZ-binding domain (i.e., the 16 C-terminal amino acids of MMAC1, or the C-terminal peptide sequences of interacting proteins identified by the approach of Example 2, or the C-terminal peptide sequences identified by the approach of Example 3), or a control peptide, and biotinylated at the amino-terminus, were pre-bound to streptavidin-alkaline phosphatase in a 4:1 molar ratio. The biotinylated peptide streptavidin-alkaline phosphatase complexes were then blocked with free biotin. These pre-bound peptide streptavidin-alkaline phosphatase complexes were then incubated with the immobilized PDZ domains in wash buffer containing PBS, BSA and triton-X100. Unbound material was removed with repeated washes. Bound peptide/streptavidin-alkaline phosphatase complex was then quantitated by a colorimetric phosphatase assay read on a 96-well plate reader.
(§2) The following peptides were used in the initial study: […]
A general note: In an ELISA, binding on a coated surface is turned into a signal by an enzyme label.

Another assay deals with T2, MMSc1 PDZ 5 (Homo sapiens, UniProt Q8NI35).
T2 construct: made in house; host or cells: E. coli
T2 sequence (Q8NI35 686-772 limits assumed): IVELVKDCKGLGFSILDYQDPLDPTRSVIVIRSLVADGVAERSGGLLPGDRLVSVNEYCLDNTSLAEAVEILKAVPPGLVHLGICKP
In words: Peptide binding ELISA assay (PDZ Binding Assay), MMSC1 PDZ domain 5. The conditions noted are these: immobilized GST fusion of MMSc1 PDZ 5; biotinylated peptide pre-bound to streptavidin-alkaline phosphatase; colorimetric phosphatase assay.
Description: as §1, §2

For the next assay, the target named is T3, MMSc1 PDZ 6 (Homo sapiens, UniProt Q8NI35).
T3 construct: made in house; host or cells: E. coli
T3 sequence (Q8NI35 1068-1160 limits assumed): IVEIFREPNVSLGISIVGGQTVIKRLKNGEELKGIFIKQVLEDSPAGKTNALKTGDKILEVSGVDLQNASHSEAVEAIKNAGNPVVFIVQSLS
The assay can be described thus: Peptide binding ELISA assay (PDZ Binding Assay), MMSC1 PDZ domain 6. The conditions noted are these: immobilized GST fusion of MMSc1 PDZ 6; biotinylated peptide pre-bound to streptavidin-alkaline phosphatase; colorimetric phosphatase assay.
Description: as §1, §2

For another assay, the target named is T4, MMSc1 PDZ 7 (Homo sapiens, UniProt Q8NI35).
T4 construct: made in house; host or cells: E. coli
T4 sequence (Q8NI35 1239-1322 limits assumed): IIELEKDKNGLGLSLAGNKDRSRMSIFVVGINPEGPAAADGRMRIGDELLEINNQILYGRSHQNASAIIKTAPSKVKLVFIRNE
The assay can be described thus: Peptide binding ELISA assay (PDZ Binding Assay), MMSC1 PDZ domain 7. The conditions noted are these: immobilized GST fusion of MMSc1 PDZ 7; biotinylated peptide pre-bound to streptavidin-alkaline phosphatase; colorimetric phosphatase assay.
Description: as §1, §2

The target of another assay is T5, MMSc1 PDZ 8 (Homo sapiens, UniProt Q8NI35).
T5 construct: made in house; host or cells: E. coli
T5 sequence (Q8NI35 1437-1520 limits assumed): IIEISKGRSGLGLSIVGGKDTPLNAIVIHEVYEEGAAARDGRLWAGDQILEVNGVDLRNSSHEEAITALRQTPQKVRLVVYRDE
In words: Peptide binding ELISA assay (PDZ Binding Assay), MMSC1 PDZ domain 8. The conditions noted are these: immobilized GST fusion of MMSc1 PDZ 8; biotinylated peptide pre-bound to streptavidin-alkaline phosphatase; colorimetric phosphatase assay.
Description: as §1, §2

The next assay concerns the target T6, MMSc1 PDZ 9 (Homo sapiens, UniProt Q8NI35).
T6 construct: made in house; host or cells: E. coli
T6 sequence (Q8NI35 1533-1615 limits assumed): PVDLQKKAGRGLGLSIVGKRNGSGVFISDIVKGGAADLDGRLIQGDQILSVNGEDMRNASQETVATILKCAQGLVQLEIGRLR
The assay can be described thus: Peptide binding ELISA assay (PDZ Binding Assay), MMSC1 PDZ domain 9. The conditions noted are these: immobilized GST fusion of MMSc1 PDZ 9; biotinylated peptide pre-bound to streptavidin-alkaline phosphatase; colorimetric phosphatase assay.
Description: as §1, §2

* marks the point of attachment. Biotin = O=C1N[C@H]2[C@H](CS[C@H]2CCCCC(=O)*)N1

Consider Biotin-ENEPFDEDQHTQITKV-OH [MMAC], for which the A405 on MMSc1 PDZ 3 turned out to be 0.01; on MMSc1 PDZ 5, 0.00; at MMSc1 PDZ 6, 0.23; on MMSc1 PDZ 7, 1.25; at MMSc1 PDZ 8, 0.30; at MMSc1 PDZ 9, 0.10.
For the substance Biotin-SGDDGDDPFLQYEFYV-OH [AF6], the A405 at MMSc1 PDZ 3 amounted to 2.24; on MMSc1 PDZ 5 it was 0.02; at MMSc1 PDZ 6, 1.46; at MMSc1 PDZ 7, 1.05; at MMSc1 PDZ 8, 0.29; on MMSc1 PDZ 9, 2.41.
Take Biotin-SGSGILAPPVPPRNTR-OH [SH3]: the A405 worked out at 0.01 at MMSc1 PDZ 3; 0.00 at MMSc1 PDZ 5; 0.00 at MMSc1 PDZ 6; 0.01 at MMSc1 PDZ 7; 0.00 at MMSc1 PDZ 8; 0.02 on MMSc1 PDZ 9.
